We go through 25 molecules from patent US20250388605A1, “HETEROBIFUNCTIONAL COMPOUNDS AND METHODS OF TREATING DISEASE” (Halda Therapeutics OpCo, Inc., priority 2022, published 2025).

One test deals with T47D cells. The test is described as follows: Cellular Growth Inhibition Assay for T47D Cells (CellTiter-Glo). In kind it is cell-based, human. The following applies: 72 hours. As to the method:
Exemplary compounds were tested for ability to inhibit the proliferation of T47D cells. T47D cells are a commercially available human breast cancer cell line.
T47D cells were purchased from American Type Cell Culture (ATCC Cat #HTB-133) and then seeded on poly-D-lysine coated, black clear-bottom 384-well plates at 3000/well in 25 μL Dulbecco's Modified Eagle Medium (DMEM) supplemented with 10% w/w Fetal bovine serum (FBS), 0.2 units/mL recombinant human insulin (Gibco Cat #12585014), and 1% w/w Pen-Strep. Pen-Strep is a commercially available mixture of penicillin G and streptomycin, which is used in mammalian cell culture media to prevent bacterial contamination. Dulbecco's Modified Eagle Medium (DMEM) supplemented with 10% w/w fetal bovine serum (FBS), 0.2 units/mL recombinant human insulin, and 1% w/w Pen-Strep is herein referred to as Treatment Medium. Following seeding of cells in the plates, the plates were spun at 300×g for 30 seconds, then equilibrated to room temperature for 30 minutes, and then deposited in a humidified tissue culture incubator maintained at 37° C. with 5% CO2.
At 24 hours after seeding of the cells, dilutions of test compound were prepared in DMSO and dissolved in Treatment Medium, to achieve a final DMSO concentration of 0.5% w/w, thereby providing the Test Compound Solution. A 25 μL aliquot of the Test Compound Solution was added to cells in the well plates. An equal volume of a solution containing DMSO and Treatment Medium was used as a negative control. Following treatment of cells with Test Compound Solution or said equal volume of a solution containing DMSO and Treatment Medium, the plates were spun at 300×g for 30 seconds, and then left in an incubator for 72 hours.
At the end of the treatment duration, cell viability was quantified with CellTiter-Glo 2.0 reagent (Promega Cat #G9243). For this purpose, plates were equilibrated to room temperature for 30 minutes, and then 25 μL of CellTiter-Glo 2.0 reagent was added to cells in the plate wells. Plates were then agitated on a shaker for two minutes at 500 rpm and subsequently incubated at room temperature for 10 minutes. Following incubation, the plates were spun at 3000×g for 30 seconds, then sealed with an optical adhesive cover, and luminescence readings were measured with an EnVision Plate Reader (Perkin Elmer).
Data was normalized using zero luminescence for baseline. A four-parameter non-linear regression curve fit was applied to dose-response data in GraphPad Prism data analysis software to determine the half-maximal growth inhibitory concentration (GI50) for each test compound.
In general terms: ATP-based viability assays read luminescence as a measure of living cells.

In another test the test system is VCaP cells. The test is described as follows: Cellular growth inhibition assay for VCaP cells, CellTiter-Glo. In kind it is cell-based, human. The following applies: 72 hours. The gist of the method:
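GI50 values come from four-parameter curve fits of luminescence data normalized to a zero baseline. Compound, in medium with 0.5% DMSO, was added one day after plating and left for 72 h before CellTiter-Glo 2.0 addition.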

For test [1], the system named is T-Rex 293 cell line SC3 cells lacking increased expression of androgen receptor protein. Put plainly: Cellular growth inhibition, T-Rex 293 SC3 cells without doxycycline (no increased androgen receptor expression), CellTiter-Glo. To be noted: T-Rex 293 SC3 cells not exposed to doxycycline (no increased androgen receptor expression), 72 hours. In kind it is cell-based. In a few lines:
(§1)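 Doxycycline (10 ng/mL) was either included or omitted to toggle wild-type androgen receptor expression in SC3 cells, a T-Rex 293 clone, grown in stripped-serum, phenol red-free medium. After 72 hours with compound, viable cells were quantified by CellTiter-Glo 2.0.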

For test [2], the system named is T-Rex 293 cell line SC3 cells having increased expression of androgen receptor protein due to exposure to doxycycline. Put plainly: Cellular growth inhibition, T-Rex 293 SC3 cells with doxycycline (increased androgen receptor expression), CellTiter-Glo. In kind it is cell-based. To be noted: T-Rex 293 SC3 cells with 10 ng/mL doxycycline (increased androgen receptor expression), 72 hours, CellTiter-Glo 2.0. In a few lines:
as §1

Usually GI50 stands for the concentration at which growth is held to half of that of the control. Molecule `Cn1cc(-c2cc(C(C)(C)O)ccc2Oc2ccc(C3CC(CC4CCN(c5ncc(C(=O)N[C@H]6C(C)(C)[C@H](Oc7ccc(C#N)c(Cl)c7)C6(C)C)cn5)CC4)C3)cc2)c2cc[nH]c2c1=O` (stereo partly shown) [Compound I-354] gave a concentration for 50% growth inhibition (GI50) in the test with T47D cells (Homo sapiens) of less than 500 nM.
Still for that read-out and setting: to `Cn1cc(-c2cc(C(C)(C)O)ccc2Oc2ccc(OC3CC4(C3)CC3(CCN(c5cnc(C(=O)N[C@H]6C(C)(C)[C@H](Oc7ccc(C#N)c(Cl)c7)C6(C)C)cn5)CC3)C4)cc2)c2cc[nH]c2c1=O` [Compound I-366] belongs more than 3000 nM; to `Cn1cc(-c2cc(C(C)(C)O)ccc2Oc2ccc(CC3CCN(c4cnc(C(=O)N[C@H]5C(C)(C)[C@H](Oc6ccc(C#N)c(Cl)c6)C5(C)C)cn4)CC3)cc2)c2cc[nH]c2c1=O` [Compound I-370], less than 500 nM.
In turn, `Cn1cc(-c2cc(C(C)(C)O)ccc2Oc2ccc(N3CC(C4CCCN(c5ncc(C(=O)N[C@H]6C(C)(C)[C@H](Oc7ccc(C#N)c(Cl)c7)C6(C)C)cn5)CCC4)C3)cc2)c2cc[nH]c2c1=O` [Compound I-362] returned a concentration for 50% growth inhibition (GI50) with T47D cells of less than 500 nM.
In the case of `Cn1cc(-c2cc(C(C)(C)O)ccc2Oc2ccc(CC3CCN(c4ccc(C(=O)N[C@H]5C(C)(C)[C@H](Oc6ccc(C#N)c(Cl)c6)C5(C)C)cn4)CC3)cc2)c2cc[nH]c2c1=O` [Compound I-369], in the test with T47D cells (Homo sapiens), the GI50 was less than 500 nM.
Still for that read-out and setting: under `COc1cc(N2CC(CC3CCN(c4cnc(C(=O)NC5C(C)(C)C(Oc6ccc(C#N)c(Cl)c6)C5(C)C)cn4)CC3)C2)ccc1Oc1ccc(C(C)(C)O)cc1-c1cn(C)c(=O)c2[nH]ccc12` (stereo not shown) [Compound I-392, N-[3-(3-chloro-4-cyano-phenoxy)-2,2,4,4-tetramethyl-cyclobutyl]-5-[4-[[1-[4-[4-(1-hydroxy-1-methyl-ethyl)-2-(6-methyl-7-oxo-1H-pyrrolo[2,3-c]pyridin-4-yl)phenoxy]-3-methoxy-phenyl]azetidin-3-yl]methyl]-1-piperidyl]pyrazine-2-carboxamide] stands less than 500 nM.
`CC(C)c1ccc(Oc2cccc(OCCC3CCN(c4ncc(C(=O)N[C@H]5C(C)(C)[C@H](Oc6ccc(C#N)c(Cl)c6)C5(C)C)cn4)CC3)c2)c(-c2cn(C)c(=O)c3[nH]ccc23)c1` [Compound I-141] showed a GI50 in the test on T47D cells of 500 to 1500 nM.
Regarding `Cn1cc(-c2ccccc2Oc2ccc(OCC3CCN(c4ncc(C(=O)NC5C(C)(C)C(Oc6ccc(C#N)c(Cl)c6)C5(C)C)cn4)CC3)cc2)c2cc[nH]c2c1=O` (stereo not shown) [Compound I-356, N-[3-(3-chloro-4-cyano-phenoxy)-2,2,4,4-tetramethyl-cyclobutyl]-2-[4-[[4-[2-(6-methyl-7-oxo-1H-pyrrolo[2,3-c]pyridin-4-yl)phenoxy]phenoxy]methyl]-1-piperidyl]pyrimidine-5-carboxamide], the GI50 in the test with T47D cells (Homo sapiens) is less than 500 nM.
On to `Cn1cc(-c2cc(C(C)(C)O)ccc2Oc2ccc(CC3CC4(CCN(c5ncc(C(=O)N[C@H]6C(C)(C)[C@H](Oc7ccc(C#N)c(Cl)c7)C6(C)C)cn5)CC4)C3)cc2)c2cc[nH]c2c1=O` [Compound I-324], for which, in the test on T47D cells (Homo sapiens), the GI50 was less than 500 nM.
`Cn1cc(-c2ccccc2Oc2ccc(N3CC(CC4CCN(c5cnc(C(=O)N[C@H]6C(C)(C)[C@H](Oc7ccc(C#N)c(Cl)c7)C6(C)C)cn5)CC4)C3)cc2)c2cc[nH]c2c1=O` [Compound I-361]: in the test on T47D cells, the concentration for 50% growth inhibition (GI50) was less than 500 nM.
The same measure, in the same setting: to `COc1cc(O[C@H]2C(C)(C)[C@H](NC(=O)c3cnc(N4CCC(C5CN(c6ccc(Oc7ccc(C(C)(C)O)cc7-c7cn(C)c(=O)c8[nH]ccc78)cc6)C5)CC4)nc3)C2(C)C)ccc1C#N` [Compound I-385] belongs less than 500 nM; to `Cn1cc(-c2cc(C(C)(C)O)ccc2Oc2ccc(N3CC(C4CCN(c5cnc(C(=O)N[C@H]6C(C)(C)[C@H](Oc7ccc(C#N)c(Cl)c7)C6(C)C)cn5)CC4)C3)cc2)c2cc[nH]c2c1=O` [Compound I-381], 500 to 1500 nM.
As to `Cn1cc(-c2cc(C(C)(C)O)ccc2Oc2ccc(CC3CC4(CCN(c5cnc(C(=O)N[C@H]6C(C)(C)[C@H](Oc7ccc(C#N)c(Cl)c7)C6(C)C)cn5)CC4)C3)cc2)c2cc[nH]c2c1=O` [Compound I-375], in the test on T47D cells (Homo sapiens), the concentration for 50% growth inhibition (GI50) is more than 3000 nM.
On to `Cn1cc(-c2cc(C(C)(C)O)ccc2Oc2ccc(N3CC(C4CCN(c5ncc(C(=O)N[C@H]6C(C)(C)[C@H](Oc7ccc(C#N)c(F)c7)C6(C)C)cn5)CC4)C3)cc2)c2cc[nH]c2c1=O` [Compound I-390], for which the concentration for 50% growth inhibition (GI50) in the test on T47D cells is less than 500 nM.
Still for that read-out and setting: under `Cn1cc(-c2ccccc2Oc2ccc(N3CC(C4CCN(c5ccc(C(=O)N[C@H]6C(C)(C)[C@H](Oc7ccc(C#N)c(Cl)c7)C6(C)C)nc5)CC4)C3)cc2)c2cc[nH]c2c1=O` [Compound I-386] stands less than 500 nM.
In the test with T47D cells, `Cn1cc(-c2cc(C(C)(C)O)ccc2Oc2ccc(N3CC(C4CCN(c5ccc(C(=O)N[C@H]6C(C)(C)[C@H](Oc7ccc(C#N)c(Cl)c7)C6(C)C)cn5)CC4)C3)cc2)c2cc[nH]c2c1=O` [Compound I-382] gave a 50% growth inhibitory concentration (GI50) of less than 500 nM.
In the case of `Cn1cc(-c2cc(C(C)(C)O)ccc2Oc2ccc(CC3CC4(CCN(c5ccc(C(=O)N[C@H]6C(C)(C)[C@H](Oc7ccc(C#N)c(Cl)c7)C6(C)C)cn5)CC4)C3)cc2)c2cc[nH]c2c1=O` [Compound I-380], the GI50 in the test with T47D cells (Homo sapiens) lay in the range of 500 to 1500 nM.
Molecule `Cn1cc(-c2cc(C(C)(C)O)ccc2Oc2ccc(N3CC4(C3)CN(c3cnc(C(=O)N[C@H]5C(C)(C)[C@H](Oc6ccc(C#N)c(Cl)c6)C5(C)C)cn3)C4)cc2)c2cc[nH]c2c1=O` [Compound I-355] registered a GI50 in the test on T47D cells of less than 500 nM.
On the same count and under the same terms, under `Cn1cc(-c2ccccc2Oc2ccc(N3CC(C4CCN(c5ncc(C(=O)N[C@H]6C(C)(C)[C@H](Oc7ccc(C#N)c(Cl)c7)C6(C)C)cn5)CC4)C3)cc2)c2cc[nH]c2c1=O` [Compound I-360] stands 500 to 1500 nM.
Regarding `CC(C)c1ccc(Oc2cccc(OCCC3CCN(c4ncc(C(=O)N[C@H]5C(C)(C)[C@H](Oc6ccc(C#N)c(Cl)c6)C5(C)C)cn4)CC3)c2F)c(-c2cn(C)c(=O)c3[nH]ccc23)c1` [Compound I-132], the 50% growth inhibitory concentration (GI50) (with VCaP cells; in test [1]; in test [2]) was more than 3000 nM throughout.
Turning to `CCS(=O)(=O)Nc1ccc(Oc2cccc(OCCCOCCCOC3CCN(c4ncc(C(=O)N[C@H]5C(C)(C)[C@H](Oc6ccc(C#N)c(Cl)c6)C5(C)C)cn4)CC3)c2)c(-c2cn(C)c(=O)c3[nH]ccc23)c1` [Compound I-12], the GI50 (in the test with VCaP cells (Homo sapiens); in test [1]; in test [2]) was less than 500 nM throughout.
On to `CCS(=O)(=O)Nc1ccc(Oc2cccc(OCCN3CCN(c4ncc(C(=O)N[C@H]5C(C)(C)[C@H](Oc6ccc(C#N)c(Cl)c6)C5(C)C)cn4)CC3)c2)c(-c2cn(C)c(=O)c3[nH]ccc23)c1` [Compound I-77], for which the GI50 (in the test with VCaP cells (Homo sapiens); in test [1]; in test [2]) was less than 500 nM throughout.
Take `Cn1cc(-c2cc(NS(=O)(=O)C3CC3)ccc2Oc2cccc(CCOC3CCN(c4ncc(C(=O)N[C@H]5C(C)(C)[C@H](Oc6ccc(C#N)c(Cl)c6)C5(C)C)cn4)CC3)c2)c2cc[nH]c2c1=O` [Compound I-145]: the figures for the 50% growth inhibitory concentration (GI50) (in the test with VCaP cells; in test [1]; in test [2]) were 1500 to 3000 nM, more than 3000 nM and less than 500 nM, respectively.
Turning to `CCS(=O)(=O)Nc1ccc(Oc2ccc(F)c(OCCOC3CCN(c4ncc(C(=O)N[C@H]5C(C)(C)[C@H](Oc6ccc(C#N)c(Cl)c6)C5(C)C)cn4)CC3)c2)c(-c2cn(C)c(=O)c3[nH]ccc23)c1` [Compound I-128], the values for the GI50 (in the test on VCaP cells (Homo sapiens); in test [1]; in test [2]) were less than 500 nM, more than 3000 nM and less than 500 nM, respectively.
On to `CCS(=O)(=O)Nc1ccc(Oc2cc(OCCOC3CCN(c4ncc(C(=O)N[C@H]5C(C)(C)[C@H](Oc6ccc(C#N)c(Cl)c6)C5(C)C)cn4)CC3)ccn2)c(-c2cn(C)c(=O)c3[nH]ccc23)c1` [Compound I-111], for which the GI50 in the test with VCaP cells (Homo sapiens) was less than 500 nM; in test [1] it was more than 3000 nM; in test [2], less than 500 nM.
